Source: patent US20250197865A1, “PHARMACEUTICAL COMPOSITION FOR TREATMENT OR PREVENTION OF FIBROTIC DISEASE” (KYUSHU UNIVERSITY, NATIONAL UNIVERSITY CORPORATION, priority 2022, published 2025)

Legend:
Type in all cases: cell-based, mouse
P4HA3 mRNA [1] = assay: siRNA treatment of myofibroblasts from carbon tetrachloride-induced fibrotic liver, P4HA3 mRNA by real-time RT-PCR; settings: for mRNA expression of P4HA3: myofibroblasts from transiently fibrotic liver, siRNA 3.125 nM, FIG. 9
Procedure: (§1) The mRNA expression levels of P4HA3 etc. in the examples of the present specification were quantified as follows. The concentration of purified RNA was determined using a microspectrophotometer DS-11 (DeNovix), and reverse transcription to cDNA was performed using a High Capacity cDNA Reverse Transcription Kit (Applied Biosystems). Quantification of mRNA was performed according to the protocol of Luna Universal qPCR Master Mix (New England BioLabs), with DNA polymerase activation at 95° C. for 60 seconds, followed by 45 cycles of cDNA denaturation at 95° C. for 15 seconds and extension at 60° C. for 30 seconds. Analysis was performed by the AACt method using GAPDH as an internal standard. Mouse Cyp7al probe was purchased from Applied Biosystems. Primers and probes for mouse α-smooth muscle actin (α-SMA), CD68, 1α1 collagen (Col1α1), 1α2 collagen (Col1α2), 1α3 collagen (Col1α3), 6α1 collagen (Col6α1), 8α1 collagen (Co81α1), GAPDH (glyceraldehyde-3-phosphate dehydrogenase), heat shock protein 47 (Hsp47), prolyl 4-hydroxylase alphal subunit (P4HA1), prolyl 4-hydroxylase alpha2 subunit (P4HA2), and prolyl 4-hydroxylase alpha3 subunit (P4HA3) were purchased from Sigma-Aldrich.
As in Example 3, the effect of suppressing P4HA3 mRNA expression on the mRNA expression of other fibrosis-related factors was examined in cultured myofibroblasts isolated from the liver 4 weeks after the start of carbon tetrachloride administration. The liver was removed from a mouse model of carbon tetrachloride (CCl4)-induced fibrotic livers and divided into small pieces. After that, the liver pieces were washed with washing buffer [25 mM HEPES/[…]/HBSS(-)], and the cell solution containing myofibroblasts was collected by shaking the liver pieces three times for 30 min at 37° C. in . . . digestion buffer [0.1% Collagenase A/15 mM HEPES/HBSS(-)]. After that, blood cell components were removed with Red Blood Cell Lysis Buffer, and the cells were suspended in 10% FBS/1% Penicillin-Streptomycin/DMEM, and then seeded on a culture plate. After 6 hr, the medium was replaced to remove non-adherent cells and debris. After that, the cells were cultured overnight in a CO2 incubator, and non-adherent cells were again removed by washing with PBS, and adherent cells were collected using Accutase. After 20 min of reaction with CD45 antibody labeled with magnetic beads, CD45-positive blood cells were removed by MACS (magnetic cell sorting) using an LS column, and CD45-negative cells were collected as myofibroblasts. After that, the purity of the isolated myofibroblasts was measured using FACS verse, and almost all of the CD45-negative cells after MACS were positive for α-SMA, a myofibroblast marker, and almost no contamination with blood cells was observed. […]

Hsp47 mRNA = assay: siRNA treatment of myofibroblasts from carbon tetrachloride-induced fibrotic liver, Hsp47 mRNA by real-time RT-PCR
Procedure: (§2) The mRNA expression levels of P4HA3 etc. in the examples of the present specification were quantified as follows. The concentration of purified RNA was determined using a microspectrophotometer DS-11 (DeNovix), and reverse transcription to cDNA was performed using a High Capacity cDNA Reverse Transcription Kit (Applied Biosystems). Quantification of mRNA was performed according to the protocol of Luna Universal qPCR Master Mix (New England BioLabs), with DNA polymerase activation at 95° C. for 60 seconds, followed by 45 cycles of cDNA denaturation at 95° C. for 15 seconds and extension at 60° C. for 30 seconds. Analysis was performed by the AACt method using GAPDH as an internal standard. Mouse Cyp7al probe was purchased from Applied Biosystems. […]
As in Example 3, the effect of suppressing P4HA3 mRNA expression on the mRNA expression of other fibrosis-related factors was examined in cultured myofibroblasts isolated from the liver 4 weeks after the start of carbon tetrachloride administration. […] After that, the purity of the isolated myofibroblasts was measured using FACS verse, and almost all of the CD45-negative cells after MACS were positive for α-SMA, a myofibroblast marker, and almost no contamination with blood cells was observed. […]

P4HA3 mRNA [2] = assay: P4HA3 knockdown by siRNA in myofibroblasts isolated from the infarcted area, real-time RT-PCR; settings: siRNA 3.125 nM, versus si Ctrl, FIG. 4
Procedure: as §2
(§3) Next, the inventors investigated the effect of suppressing P4HA3 mRNA expression on the mRNA expression of other fibrosis-related factors. […] The quantification of mRNA expression levels of P4HA3, etc. in myofibroblasts after siRNA treatment was performed in the same manner as in Example 2.

[3] = tested on: periostin, 1α1 collagen and 3α1 collagen mRNA expression in myofibroblasts; assay: Effect of P4HA3 knockdown on fibrosis-related factor mRNA in myofibroblasts isolated from the infarcted area, real-time RT-PCR; settings: siRNA 3.125 nM, versus si Ctrl, FIG. 4
Procedure: as §1
Next, the inventors investigated the effect of suppressing P4HA3 mRNA expression on the mRNA expression of other fibrosis-related factors. Myofibroblasts from the infarcted area of myocardial infarction disease model mice were cultured as described above in Nakaya, M. et al. (2017). Briefly, 3 days after coronary artery ligation, the ventricles of treated mice were digested with PBS containing 0.1% collagenase A (Roche Diagnostics) and 0.1% trypsin (Sigma-Aldrich) at 37° C. with agitation. The cells were placed on plates containing 10% FBS/DMEM overnight, and then the medium was replaced to remove non-adherent cells. The attached cells were cultured for more than 6 days and used as myofibroblasts in the following experiments. […] The quantification of mRNA expression levels of P4HA3, etc. in myofibroblasts after siRNA treatment was performed in the same manner as in Example 2.

[4] = tested on: mRNA expression of fibrosis-related factors (collagens, elastin) in myofibroblasts; assay: siRNA treatment of myofibroblasts from carbon tetrachloride-induced fibrotic liver, fibrosis-related factor mRNA by real-time RT-PCR; settings: for mRNA expression of 1α1 collagen / mRNA expression of other fibrosis-related factors: siRNA 3.125 nM, versus si Ctrl
Procedure: as §1
As in Example 3, the effect of suppressing P4HA3 mRNA expression on the mRNA expression of other fibrosis-related factors was examined in cultured myofibroblasts isolated from the liver 4 weeks after the start of carbon tetrachloride administration. The liver was removed from a mouse model of carbon tetrachloride (CCl4)-induced fibrotic livers and divided into small pieces. After that, the liver pieces were washed with washing buffer [25 mM HEPES/[…]/HBSS(-)], and the cell solution containing myofibroblasts was collected by shaking the liver pieces three times for 30 min at 37° C. in . . . digestion buffer [0.1% Collagenase A/15 mM HEPES/HBSS(-)]. After that, blood cell components were removed with Red Blood Cell Lysis Buffer, and the cells were suspended in 10% FBS/1% Penicillin-Streptomycin/DMEM, and then seeded on a culture plate. After 6 hr, the medium was replaced to remove non-adherent cells and debris. After that, the cells were cultured overnight in a CO2 incubator, and non-adherent cells were again removed by washing with PBS, and adherent cells were collected using Accutase. After 20 min of reaction with CD45 antibody labeled with magnetic beads, CD45-positive blood cells were removed by MACS (magnetic cell sorting) using an LS column, and CD45-negative cells were collected as myofibroblasts. After that, the purity of the isolated myofibroblasts was measured using FACS verse, and almost all of the CD45-negative cells after MACS were positive for α-SMA, a myofibroblast marker, and almost no contamination with blood cells was observed. Si P4HA3 #1 and si P4HA3 #2, ThermoFisher Scientific catalog numbers 4390771 and 4390771 (Assay ID: s115723 and s115721), were added to the myofibroblast culture at a final concentration of 3.125 nM using Lipofectamine RNAiMAX (Invitrogen). In experiments in which si P4HA3 #2 was not used, such as in Example 3, si P4HA3 #1 was used as “si P4HA3”. For siRNA control experiments, Silencer Select Negative Control no. 1 siRNA (ThermoFisher Scientific, catalog number: 4390843) was used as si Ctrl. The nucleotide sequences of the sense and antisense strands of si P4HA3 #1 are listed in the sequence listing attached hereto as SEQ ID NOs: 1 and 2, respectively. The nucleotide sequences of the sense and antisense strands of si P4HA3 #2 are listed in the sequence listing attached hereto as SEQ ID NOs: 3 and 4, respectively.
Si Hsp47 and si P4HA3 #1 from Example 7 were used as knockdown reagents for Hsp47 and P4HA3, respectively. For si Hsp47, ThermoFisher Scientific catalog number 4390771 (Assay ID: s232335) was used. Separation of cell type fractions from livers collected 4 weeks after the start of carbon tetrachloride administration was performed in the same manner as in Example 6. […]

P4HA3 mRNA [5] = assay: P4HA3 knockdown in myofibroblasts from lungs of bleomycin-administered pulmonary fibrosis model mice, real-time RT-PCR; settings: FIG. 11-2
Procedure: as §2, §3
From the bleomycin-administered pulmonary fibrosis model mouse prepared in the same manner as in Example 4, the lungs were removed 7 days after bleomycin administration. […] Quantification of the mRNA expression levels of Cd68, a blood cell marker, 1α1 collagen, a fibrosis-related factor, and P4HA3 was performed in the same manner as in Example 2. […]

[6] = tested on: 1α1, 3α1 and 14α1 collagen mRNA expression in myofibroblasts; assay: Effect of P4HA3 knockdown on fibrosis-related factor mRNA in myofibroblasts from fibrotic lungs, real-time RT-PCR; settings: myofibroblasts from pulmonary fibrosis model mice; versus si Ctrl; FIG. 11-2
[7] = myofibroblasts from transiently fibrotic liver, FIG. 9

Substance	P4HA3 mRNA expression (P4HA3 mRNA [1]; myofibroblasts from damaged fibrotic liver, FIG. 21-1 B)	effect of suppressing the mRNA expression of each target gene, si Hsp47 compared with si P4HA3 (Hsp47 mRNA; myofibroblasts from CCl4 fibrotic liver, FIGS. 20A and B)	expression of P4HA3 mRNA (P4HA3 mRNA [2])	expression of 1α1 collagen mRNA [3]	expression of 3α1 collagen mRNA [3]	expression of periostin mRNA [3]	expression of P4HA3 gene (P4HA3 mRNA [1]; myofibroblasts from CCl4 liver fibrosis model, versus si Ctrl, FIG. 25)	mRNA expression of P4HA3 (P4HA3 mRNA [1]; versus si Ctrl)	effect of suppressing the mRNA expression of fibrosis-related factors, si P4HA3 compared with si Hsp47 ([4]; myofibroblasts from CCl4 fibrotic liver, 1α1, 3α1, 8α1, 14α1 collagen, FIG. 20 C to F)	effect of suppressing the mRNA expression of fibrosis-related factors, single siRNAs and combination compared ([4]; myofibroblasts from damaged fibrotic liver, 1α1, 1α2, 3α1, 8α1, 14α1 collagen, elastin, FIGS. 21-1 C, D and 21-2 A to D)	difference in mRNA expression inhibitory effect between si P4HA3 #1 and si P4HA3 #2 for 3α1 collagen and elastin [4, 7]	inhibitory activity for all mRNA expression, si P4HA3 #1 compared with si P4HA3 #2 ([4]; myofibroblasts from transiently fibrotic liver, P4HA3, collagens, elastin, FIG. 9)	mRNA expression of 1α1 collagen [4, 7]	mRNA expression of other fibrosis-related factors [4, 7]	mRNA expression level of P4HA3 reduced to (P4HA3 mRNA [5]; remaining level relative to si Ctrl)	P4HA3 mRNA expression (P4HA3 mRNA [5]; versus si Ctrl)	mRNA expression level of 1α1 collagen [6]	mRNA expression level of 3α1 collagen [6]	mRNA expression level of 14α1 collagen [6]	Hsp47 mRNA expression (Hsp47 mRNA; myofibroblasts from damaged fibrotic liver, FIG. 21-1 A)
si Hsp47: siRNA for mouse Hsp47, SEQ ID NOs: 12 and 13; ThermoFisher Scientific catalog 4390771, Assay ID s232335 (chain 1 CGGACAGGCCTGTACAACTTT; chain 2 AGTTGTACAGGCCTGTCCGGT; listed as DNA, chemistry not given here) [reference compound]	did not suppress P4HA3 mRNA expression at all	stronger effect																		
si P4HA3 #1: siRNA #1 against mouse P4HA3, sense/antisense SEQ ID NOs: 1 and 2; ThermoFisher Scientific catalog 4390771, Assay ID s115723 (sense CCACGAGTATGGACAGGAATT; antisense TTCCTGTCCATACTCGTGGAT; listed as DNA, chemistry not given here)			strongly inhibited	strongly inhibited	strongly inhibited	strongly inhibited	almost completely suppressed	inhibited	stronger effect	higher effect	no significant difference	stronger inhibitory activity than si P4HA3 #2	inhibited	inhibited	less than 5%	very strongly inhibited	reduced to a fraction of their original levels	reduced to a fraction of their original levels	reduced to a fraction of their original levels	slightly suppressed
si P4HA3 #2: siRNA #2 against mouse P4HA3, sense/antisense SEQ ID NOs: 3 and 4; ThermoFisher Scientific catalog 4390771, Assay ID s115721 (sense GCTCATAGCTCTCTACCATTT; antisense ATGGTAGAGAGCTATGAGCGG; listed as DNA, chemistry not given here)								inhibited			no significant difference		inhibited	inhibited						
